Read-outs that look alike come from different tables or passages of the source.
Test system: HCV 1b-377-neo replicon cells
Assay: HCV replicon assay, HCV 1b-377-neo replicon cells (1b FRET)
Assay type: cell-based, Hepatitis C virus genotype 1b
Settings: HCV 1b-377-neo replicon cells, HCV 1b genotype, read-out: EC50 range against HCV 1b (Table 2, Range)
Summary of the method: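 Compounds tested in HCV genotype 1b-377-neo replicon cells with a FRET read-out. Cells resistant to a reference NS5A inhibitor through a Y2065H NS5A mutation were run alongside wild-type cells.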

| SMILES | EC50 (Hepatitis C virus) [nM] | EC50 [nM] |
| --- | --- | --- |
| COC(=O)N[C@@H](C(=O)N1[C@H](c2ncc(-c3ccc(-c4ccc(-c5cnc([C@@H]6C[C@@H]7C[C@@H]7N6C(=O)[C@H](NC(=O)OC)c6ccccc6)[nH]5)cc4)cc3)[nH]2)C[C@@H]2C[C@@H]21)c1ccccc1 [Example M124, dimethyl (4,4′-biphenyldiylbis(1H-imidazole-5,2-diyl(1S,3S,5S)-2-azabicyclo[3.1.0]hexane-3,2-diyl((1R)-2-oxo-1-phenyl-2,1-ethanediyl)))biscarbamate] | 1 to 99 | – |
| CCN(CC)[C@@H](C(=O)N1CCC[C@H]1c1ncc(-c2ccc(-c3ccc(-c4cnc([C@@H]5CCCN5C(=O)[C@@H]5CCCO5)[nH]4)cc3)cc2)[nH]1)c1ccccc1 [Example 106, (1R)-N,N-diethyl-2-oxo-1-phenyl-2-((2S)-2-(5-(4′-(2-((2S)-1-((2S)-tetrahydro-2-furanylcarbonyl)-2-pyrrolidinyl)-1H-imidazol-5-yl)-4-biphenylyI)-1H-imidazol-2-yl)-1-pyrrolidinyl)ethanamine] | – | 0.001 to 0.999 |
| CC[C@H](NC(=O)OC)C(=O)N1[C@@H](C)CC[C@H]1c1nc(-c2ccc(-c3ccc(-c4c[nH]c([C@@H]5CC[C@H](C)N5C(=O)[C@H](CC)NC(=O)OC)n4)cc3)cc2)c[nH]1 [Example M154, dimethyl (4,4′-biphenyldiylbis(1H-imidazole-4,2-diyl((2S,5S)-5-methyl-2,1-pyrrolidinediyl)((2S)-1-oxo-1,2-butanediyl)))biscarbamate] | 0.001 to 0.999 | – |
| CN(C)[C@@H](C(=O)N1CCC[C@H]1c1ncc(-c2ccc(-c3ccc(-c4cnc([C@@H]5CCCN5C(=O)C5(c6ccccc6)CC5)[nH]4)cc3)cc2)[nH]1)c1ccccc1F [Example 107-34, (1R)-1-(2-fluorophenyl)-N,N-dimethyl-2-oxo-2-((2S)-2-(5-(4′-(2-((2S)-1-((1-phenylcyclopropyl)carbonyl)-2-pyr-rolidinyl)-1H-imidazol-5-yl)-4-biphenylyl)-1H-imidazol-2-yl)-1-pyrrolidinyl)ethanamine] | 0.001 to 0.999 | – |
| COC(=O)N[C@H](C(=O)N1CCC[C@H]1c1ncc(-c2ccc(-c3ccc(-c4nc([C@@H]5CCCN5C(=O)[C@@H](NC(=O)OC)C(C)C)[nH]c4C)cc3)cc2)[nH]1)C(C)C [Example E5e, methyl ((1S)-1-(((2S)-2-(4-(4′-(2-((2S)-1-((2S)-2-((methoxycarbonyl)amino)-3-methylbutanoyl)-2-pyrrolidinyl)-1H-imidazol-4-yl)-4-biphenylyl)-5-methyl-1H-imidazol-2-yl)-1-pyrrolidinyl)carbonyl)-2-methylpropyl)carbamate] | 0.001 to 0.999 | – |
| CCN(CC)[C@@H](C(=O)N1CCC[C@H]1c1ncc(-c2ccc(-c3cc(F)c(-c4cnc([C@@H]5CCCN5C(=O)[C@@H](c5ccccc5)N(CC)CC)[nH]4)cc3F)cc2)[nH]1)c1ccccc1 [Example D54, (1R1′R)-2,2′-((2,5-difluoro-4,4′-biphenyldiyl)bis(1H-imidazole-5,2-diyl(2S)-2,1-pyrrolidinediyl))bis (N,N-diethyl-2-oxo-1-phenylethanamine)] | 0.001 to 0.999 | – |
| CC[C@@H](O)C(=O)N1CCC[C@H]1c1ncc(-c2ccc(-c3ccc(-c4cnc([C@@H]5CCCN5C(=O)[C@H](NC(=O)OC)c5ccccc5)[nH]4)cc3)cc2)[nH]1 [Example 56, methyl ((1R)-2-((2S)-2-(5-(4′-(2-((2S)-1-((2R)-2-hydroxybutanoyl)-2-pyrrolidinyl)-1H-imidazol-5-yl)-4-biphenylyl)-1H-imidazol-2-yl)-1-pyrrolidinyl)-2-oxo-1-phenylethyl)carbamate] | 0.001 to 0.999 | – |
| C[C@H](NC(=O)[C@@H](c1ccccc1)N(C)C)c1ncc(-c2ccc(-c3ccc(-c4cnc([C@@H]5CCCN5C(=O)[C@@H](c5ccccc5)N(C)C)[nH]4)cn3)cc2)[nH]1 [Example 152j-11, (2R)-2-(dimethylamino)-N-((1S)-1-(5-(4-(5-(2-((2S)-1-((2R)-2-(dimethylamino)-2-phenylacetyl)-2-pyrrolidinyl)-1H-imidazol-5-yl)-2-pyridinyl)phenyl)-1H-imidazol-2-yl)ethyl)-2-phenylacetamide] | 0.001 to 0.999 | – |
| COC[C@H](NC(=O)OC)C(=O)N1CCC[C@H]1c1ncc(-c2ccc(-c3ccc(-c4cnc([C@@H]5CCCN5C(=O)[C@H](COC)NC(=O)OC)[nH]4)cc3)cc2)[nH]1 [Example M26, methyl ((1S)-2-((2S)-2-(5-(4′-(2-((2S)-1-(N-(methoxycarbonyl)-O-methyl-L-seryl)-2-pyrrolidinyl)-1H-imidazol-5-yl)-4-biphenylyl)-1H-imidazol-2-yl)-1-pyrrolidinyl)-1-(methoxymethyl)-2-oxoethyl)carbamate] | 100 to 999 | – |
| CCN(CC)[C@@H](C(=O)N1CCC[C@H]1c1ncc(-c2ccc(-c3ccc(-c4cnc([C@@H]5CCCN5C(=O)C[C@@H](NC(=O)OC)C(C)C)[nH]4)cc3)cc2)[nH]1)c1ccccc1 [cj-52, methyl ((1R)-3-((2S)-2-(5-(4′-(2-((2S)-1-((2R)-2-(diethylamino)-2-phenylacetyl)-2-pyrrolidinyl)-1H-imidazol-5-yl)-4-biphenylyl)-1H-imidazol-2-yl)-1-pyrrolidinyl)-1-isopropyl-3-oxopropyl)carbamate] | 0.001 to 0.999 | – |
| COC(=O)N[C@@H](C)C(=O)N1CCC[C@H]1c1ncc(-c2ccc(-c3ccc(-c4cnc([C@@H]5CCCN5C(=O)[C@H](Cc5c[nH]c6ccccc56)NC(=O)OC)[nH]4)cc3)cc2)[nH]1 [cj-102, methyl ((1S)-2-((2S)-2-(5-(4′-(2-((2S)-1-((2S)-3-(1H-indol-3-yl)-2-((methoxycarbonyl)amino)propanoyl)-2-pyrrolidinyl)-1H-imidazol-5-yl)-4-biphenylyl)-1H-imidazol-2-yl)-1-pyrrolidinyl)-1-methyl-2-oxoethyl)carbamate] | 0.001 to 0.999 | – |
| CN1CCN(C(=O)N[C@@H](C(=O)N2CCC[C@H]2c2ncc(-c3ccc(-c4ccc(-c5cnc([C@@H]6CCCN6C(=O)[C@H](NC(=O)N6CCN(C)CC6)c6ccccc6)[nH]5)cc4)cc3)[nH]2)c2ccccc2)CC1 [Example 25-7, N,N′-(4,4′-biphenyldiylbis(1H-imidazole-5,2-diyl(2S)-2,1-pyrrolidinediyl((1R)-2-oxo-1-phenyl-2,1-ethanediyl)))bis(4-methyl-1-piperazinecarboxamide)] | 1 to 99 | – |
| C=CCCOC(=O)N[C@H](C(=O)N1CCC[C@H]1c1ncc(-c2ccc(-c3ccc(-c4cnc([C@@H]5CCCN5C(=O)[C@@H](NC(=O)OCCC=C)C(C)C)[nH]4)cc3)cc2)[nH]1)C(C)C [LS16, 3-buten-1-yl ((1S)-1-(((2S)-2-(5-(4′-(2-((2S)-1-((2S)-2-(((3-buten-1-yloxy)carbonyl)amino)-3-methylbutanoyl)-2-pyrrolidinyl)-1H-imidazol-5-yl)-4-biphenylyl)-1H-imidazol-2-yl)-1-pyrrolidinyl)carbonyl)-2-methylpropyl)carbamate] | 1 to 99 | – |
| COC(=O)N[C@H](C(=O)N1CCC[C@H]1c1nc(-c2cnc(-c3ccc(-c4cnc([C@@H]5CCCN5C(=O)[C@@H](NC(=O)OC)C(C)C)[nH]4)c(F)c3)nc2)c[nH]1)C(C)C [Example D68, methyl ((1S)-1-(((2S)-2-(5-(2-fluoro-4-(5-(2-((2S)-1-((2S)-((methoxycarbonyl)amino)-3-methylbutanoyl)-2-pyrrolidinyl)-1H-imidazol-5-yl)-2-pyrimidinyl)phenyl)-1H-imidazol-2-yl)-1-pyrrolidinyl)carbonyl)-2-methylpropyl) carbamate] | 0.001 to 0.999 | – |
